# Reference: patent publication US6015879A, “Peptide and peptide analog protease inhibitors” (Sibia Neurosciences, Inc., priority 1995, dated 2000)
# Non-standard residues stand in square brackets, D forms with d. Residues, ends and D or L forms follow the SMILES beside them. ξ: configuration not given here. *: point of attachment. Chg = N[CH](C(=O)O)C1CCCCC1; Nle = CCCC[CH](N)C(=O)O; Cbz = O=C(OCc1ccccc1)*; ξNle = CCCCC(N)C(=O)O; CHN2 = [N-]=[N+]=C*
# System: Aβ formation in HGB 717/Swed cells
# Assay: Immunoblot assay for Aβ peptide (inhibition of Aβ formation)
# Assay type: cell-based, Human
# Conditions: concentration of 10 μM, overnight, relative to DMSO control
row,Structure (SMILES),% INHIBITION OF Aβ
1,"CC(=O)N[C@@H](CC(C)C)C(=O)N[C@@H](CC(C)C)C(=O)NC(C=O)CC1CCCCC1 (mixture of isomers) [Ac-L-L-Cha-(H), N-Ac-L-Leu-L-Leu-DL-cyclohexylalaninal]",46%
2,"C=C(C)CC(C=O)NC(=O)[C@H](Cc1ccccc1)NC(=O)[C@H](CC(C)C)NC(=O)OCc1ccccc1 (mixture of isomers) [Cbz-L-F-Lene-(H), (2SR)-N-Cbz-L-Leu-L-Phe-N-[2-(4-methyl-4-pentenal)]amide]",69%
3,"C=C(C)CC(C=O)NC(=O)[C@H](CC(C)C)NC(=O)[C@H](CC(C)C)NC(=O)OCc1ccccc1 (mixture of isomers) [Cbz-L-L-Lene-(H), (2SR)-N-Cbz-L-Leu-L-Leu N-[2-(4-methyl-4-pentenal)]amide]",95%

# Same assay, conditions: concentration of 40 μM, overnight, relative to DMSO control
row,Structure (SMILES),% INHIBITION OF Aβ
1,"C=C(C)CC(C=O)NC(=O)[C@H](CC(C)C)NC(=O)[C@H](CC(C)C)OCc1ccccc1 (mixture of isomers) [2S-benzoxyvaleric-L-Lene-(H), (2SR)-N-[(2S)-2-benzoxy-4-methylpentanoyl]-L-Leu N-[2-(4-methyl-4-pentenal)]amide]",85%
2,"CC(C)C[C@H](NC(=O)OCc1ccccc1)C(=O)N[C@@H](Cc1ccccc1)C(=O)NC(C=O)CC1CCCCC1 (mixture of isomers) [Cbz-L-F-Cha-(H), (2SR)-N-Cbz-L-Leu-L-Phe-DL-cyclohexylalaninal]",100%
3,"CCCCC(C=O)N(C)C(=O)[C@H](CC(C)C)NC(=O)[C@H](CC(C)C)NC(=O)OCc1ccccc1 (mixture of isomers) [Cbz-L-L-[CH3]-Nl-(H), N-Cbz-L-Leu-L-Leu-DL-(methyl)norleucinal]",97%
4,"CCCCC(C=O)NC(=O)[C@H](CC(C)C)N(C)C(=O)[C@H](CC(C)C)NC(=O)OCc1ccccc1 (mixture of isomers) [Cbz-L-[CH3]-L-Nl-(H), N-Cbz-L-Leu-L-(methyl)Leu-DL-norleucinal]",77%
5,"CCCCC(C=O)NC(=O)C(CC(C)C)NC(=O)C1CCCN1C(=O)OCc1ccccc1 [Cbz-P-L-Nl-(H), N-Cbz-L-Pro-L-Leu-L-norleucinal] (Cbz-Pro-Leu-[Nle]-aldehyde; configuration not given here)",80%

# Same assay, conditions: concentration of 50 μM, overnight, relative to DMSO control
row,Structure (SMILES),% INHIBITION OF Aβ
1,"CCCCC(C=O)NC(=O)[C@H](CC(C)C)NC(=O)[C@H](CC(C)C)NC(=O)OCC1c2ccccc2-c2ccccc21 (mixture of isomers) [Fmoc-L-L-Nl-(H), N-Fmoc-L-Leu-L-Leu-DL-norleucinal]",89%

# Same assay, conditions: concentration of 75 μM, overnight, relative to DMSO control
row,Structure (SMILES),% INHIBITION OF Aβ
1,"CCCCC(NC(=O)[C@H](CC(C)C)NC(=O)[C@H](CC(C)C)NC(C)=O)C(=O)C(F)(F)F (mixture of isomers) [Ac-L-L-Nl-(TFMK), (3SR)-N-Ac-L-Leu-L-Leu N-[3-(1,1,1-trifluoro-2-oxoheptyl)]amide]",50%
2,"CC=CCC(C=O)NC(=O)[C@H](CC(C)C)NC(=O)[C@H](CC(C)C)NC(C)=O (mixture of isomers) [Ac-L-L-Nlene-(H), (2SR)-N-Ac-L-Leu-L-Leu N [2-(trans-4-hexenal)]amide]",96%
3,CC(=O)NC(CC(C)C)C(=O)NC(CC(C)C)C(=O)NC(C=O)C1CCCCC1 [Ac-L-L-Chg-(H)] (Ac-Leu-Leu-[Chg]-aldehyde; configuration not given here),99%
4,"CCCCC(C#N)NC(=O)[C@H](CC(C)C)NC(=O)[C@H](CC(C)C)NC(C)=O (stereo partly drawn) [Ac-L-L-Nl-(CN), (2S)-N-Ac-L-Leu-L-Leu N-[2-(hexanenitrile)]amide]",94%
5,"CCCCC(NC(=O)[C@H](CC(C)C)NC(=O)[C@H](CC(C)C)NC(C)=O)C(=O)C=[N+]=[N-] (stereo partly drawn) [Ac-L-L-Nl-(DM), N-Ac-L-Leu-L-Leu-L-Nle-COCHN2] (Ac-Leu-Leu-[ξNle]-CHN2)",87%
